Reference: patent US20130121921A1, “Rodent Therapeutic Model And Methods” (The Christus Stehlin Foundation For Cancer Research, priority 2011, published 2013)

What was measured:
[1] = test system: humanized NSG mice; experiment: toxicity of CPT given by gavage to humanized and non-humanized NSG mice (weight, blood cell counts); format: in vivo, mouse
Method: Once maximum engraftment is reached as measured in Example 1 or 2, initial validation experiments are performed. A reasonable number of doubly humanized mice are obtained within approximately 5 to 6 months from the start of the humanizing process, i.e., 10-12 NSG mice with a >80% human BM and a >60% HSA in their blood. […] Camptothecin (CPT) is administered by gavage to humanized and non-humanized mice. At normal pH, CPT exists in equilibrium between two states: lactone and carboxylate. In the mouse, equilibrium is around 50% for each isoform. However, in human blood, due to an affinity for human serum albumin (HSA), the equilibrium moves towards the carboxylate form, leaving only 3%-5% total CPT in the active lactone form, see Giovanella et al., Annals New York Academy of Sciences 922: 27-35, 2000. The double humanized mouse can act akin to a human in this respect. Higher and higher doses of CPT are administered starting with a dose of 0.5 mg/kg orally by gavage given daily for 5 days followed by 2 days of rest for 3 weeks. Animals are weighed twice a week and their weight recorded. Blood is taken twice a week and blood cells counted. If no toxicity is found, the dose is raised by 50% and the procedure repeated until toxicity is obtained.

[2] = test system: human tumors; experiment: human tumors xenotransplanted subcutaneously in humanized and non-humanized NSG mice, treated at MTD of CPT; format: in vivo, mouse; settings: non-humanized vs humanized group, each at its own MTD
Method: Once a maximum tolerated dose (MTD) for humanized NSG mice and MTD for non-humanized ones is obtained using the procedure described in Example 3, final validation experiments are performed. Six human tumors are xenotransplanted subcutaneously on the dorsal flank in humanized and non-humanized NSG mice. Once the tumors become palpable, the animals are treated with the MTD dose of CPT of their group, i.e., the humanized mice with the humanized MTD and the non-humanized mice with their MTD. The tumors are measured with calipers twice a week and the results recorded. […] A human dose for CPT can be determined and suitability of the drug for treatment of humans can be determined. The experiments can be performed substituting one or more drugs in place of CPT. The experiments can be performed using one or more drugs in addition to CPT. The experiments can be performed by using introduction of human leukemia cancer cells or other non-solid tumor human cancer cells into the rodent instead of xenotransplantation of solid tumors. Such cancers can be evaluated based on alternative metrics such as cell count.

[3] = test system: human tumors; experiment: xenograft test repeated in mice with higher percentage of human bone marrow and hepatocytes; format: in vivo, mouse; settings: less humanized vs more humanized group
Method: The procedures in any one or combination of Examples 1-4 are performed with mice having a higher percentage of human bone marrow and hepatocytes. Rather than having a non-human control, the control can be instead, or in addition, mice having the percentage of human bone marrow (and/or human cord blood) used in the experimental group in the first performance of the procedures. Double humanized mice are further supplemented with human or humanized intestinal enzymes to form a triply humanized mouse (bone marrow, liver, and intestinal enzymes), which is then be used as a predictor of human response to anticancer agents. A mouse having humanized intestinal enzymes can be constructed, for example, as described in van Herwaarden et al., J. Clin. Invest., 117 (11):3583-3592, 2007. […] A human dose for CPT can be redetermined and suitability of the drug for treatment of humans can be redetermined.

[4] = in the mouse, normal pH; cited from earlier work
[5] = target: human serum albumin (HSA) (Homo sapiens, UniProt P02768); settings: human blood, equilibrium moved towards carboxylate by affinity for HSA; cited from earlier work
human serum albumin (HSA), sequence (P02768 25-609): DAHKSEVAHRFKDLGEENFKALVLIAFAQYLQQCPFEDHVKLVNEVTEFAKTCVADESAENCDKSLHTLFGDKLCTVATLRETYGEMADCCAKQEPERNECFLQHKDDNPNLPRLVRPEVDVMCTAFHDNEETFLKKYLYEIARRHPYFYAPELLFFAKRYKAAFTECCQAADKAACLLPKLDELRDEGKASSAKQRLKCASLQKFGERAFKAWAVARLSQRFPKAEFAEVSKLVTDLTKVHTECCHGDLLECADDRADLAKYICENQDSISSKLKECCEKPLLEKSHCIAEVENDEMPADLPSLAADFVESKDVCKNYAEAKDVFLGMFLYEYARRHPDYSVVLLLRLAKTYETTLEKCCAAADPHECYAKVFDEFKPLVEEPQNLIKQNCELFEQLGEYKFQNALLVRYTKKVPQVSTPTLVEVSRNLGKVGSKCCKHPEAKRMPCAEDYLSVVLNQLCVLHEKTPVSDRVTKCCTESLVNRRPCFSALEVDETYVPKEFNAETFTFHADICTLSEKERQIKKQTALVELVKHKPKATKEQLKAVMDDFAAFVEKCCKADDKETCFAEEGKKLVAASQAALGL

CC[C@@]1(O)C(=O)OCc2c1cc1n(c2=O)Cc2cc3ccccc3nc2-1 [CPT, Camptothecin]
sensitivity of human bone marrow cells present in the mouse ([1]; human bone marrow cells vs mouse cells): more sensitive to camptothecin than mouse cells | hematological toxicity of CPT ([1]; humanized NSG mice, relation to percentage of human bone marrow): directly proportional to the percentage of human bone marrow | toxicity of CPT for humanized mice ([1]; oral gavage from 0.5 mg/kg daily x5, 2 days rest, 3 weeks, dose raised by 50%, humanized vs non-humanized mice): Higher toxicity | anticancer activity (relative size of the tumors) [2]: much higher anticancer activity of CPT in the non-humanized group | anticancer activity (relative size of the tumors) [3]: higher anticancer activity of CPT in the less humanized group | equilibrium share of each isoform (lactone and carboxylate) [4]: around 50% | total CPT in the active lactone form [5]: 3%-5%
